Assay results taken from patent US9763874B2, “Nanoparticles loaded with chemotherapeutic antitumoral drug” (priority 2011, dated 2017).

Tests used:
healthy Wistar rats = experiment: Example 2: adverse effects after a single IV bolus injection (mortality, lung injuries); type: in vivo, rat; details: 7.5 mg/kg single IV bolus
Protocol: The aim of the present in vivo study was to establish and assess a rat model able to induce toxicological signs and lung injuries similar to severe pulmonary adverse events observed in said clinical trial.
The dose levels of 5, 7.5 and 10 mg/kg were chosen according to previous in vivo studies, they respectively correspond to 30 mg/m2, 45 mg/m2 and 60 mg/m2 human doses.
The study involved finally 123 male Wistar rats.
Rats were weighted and distributed according to their individual body weight to form […] the day of IV treatment.
Drug suspension was administered according to the body weight of rat determined just before the administration, so as to administer a dose volume of 670 μl of a 3.71 mg/ml suspension to a 250 g rat. • The rats from groups 13 to 16 received a single IV injection of Doxorubicin at 7.5 mg/kg equivalent Doxorubicin HCl (Q1Dx1). […] Solution was administered according to the body weight of rat determined just before the administration, so as to administer a dose volume of 670 μl solution to a 250 g rat. • The rats from group 21 (Untreated control group) received no treatment.
Treatment allocation was decided at random and was as disclosed in Table 2.

HCC = details: IV infusion in HCC; cited from earlier work
unresectable HCC = details: patients with unresectable HCC; cited from earlier work

Compound: COc1cccc2c1C(=O)c1c(O)c3c(c(O)c1C2=O)C[C@@](O)(C(=O)CO)C[C@@H]3O[C@H]1C[C@H](N)[C@H](O)[C@H](C)O1 [Doxorubicin, doxorubicin]
- mortality and lung injuries (healthy Wistar rats): Neither mortality, nor lung injuries
- objective response rate (HCC): 5-10%

Compound: CNC(=O)c1cc(Oc2ccc(NC(=O)Nc3ccc(Cl)c(C(F)(F)F)c3)cc2)ccn1 [sorafenib]
- overall survival over placebo (unresectable HCC): increase even modest
